Experimental data published in patent US20250090472A1, “LIPID NANOPARTICLE COMPOSITIONS AND USES THEREOF” (BEIJING JITAI PHARMACEUTICAL TECHNOLOGY CO., LTD., priority 2023, published 2025).

Tested on: C57BL/6 mice
Experiment: In vivo bioluminescence assay of LNPs encapsulating luciferase mRNA (without permanently cationic lipid)
Details: intravenous single dose 0.5 mg/kg luciferase mRNA, 6 h after administration, group mean
Description: The delivery effect and safety of nanoparticles encapsulated with luciferase mRNA (Trilink, L-7202) in mice were evaluated. The test mice were SPF-grade C57BL/6 mice, female, 6-8 weeks old, weighing 18-22 g, and were purchased from SPF (Beijing) Biotechnology Co., Ltd. All animals were acclimatized for more than 7 days prior to the experiment, and had free access to food and water during the experiment. The conditions include alternating light and dark for 12/12 h, the indoor temperature of 20-26° C. and the humidity of 40-70%. The mice were randomly grouped. The lipid nanoparticles encapsulated with luciferase mRNA prepared above were injected into mice by intravenous administration at a single dose of 0.5 mg/kg mRNA, and the mice were subjected to in vivo bioluminescence assay using a Small Animal In Vivo Imaging System (IVIS LUMINA III, purchased from PerkinElmer) at 6 h after administration. The assay was performed as follows: D-luciferin solution was prepared in saline at a concentration of 15 mg/mL, and each mouse was given the substrate by intraperitoneal injection. At ten minutes after administration of the substrate, the mice were anesthetized in an anesthesia chamber with isoflurane at a concentration of 2.5%. The anesthetized mice were placed in IVIS for luminescent imaging. Data acquisition and analysis were performed on the concentrated distribution area of luminescence.
The in vivo delivery efficiency of lipid nanoparticle carriers was expressed as the mean values of fluorescence intensity and total photon count in different animals measured at 6 hours after administration of the lipid nanoparticle within the same subject group, as shown in Table 4. Higher values of fluorescence intensity and total photon count indicate higher in vivo delivery efficiency of this mRNA fragment by the lipid nanoparticles.

SMILES | Total photon count in vivo (Total Flux)
CCCCC/C=C\C/C=C\CCCCCCCCC(CCCCCCCC/C=C\C/C=C\CCCCC)OC(=O)CCCN(C)C [Dlin-MC3-DMA, reference compound] | 8.04E+09
CCCCCCCCCSC(=O)C(C)(C)CCCCCC(CCCCCC(C)(C)C(=O)OCC#CCCC(CCCC)CCCC)OC(=O)CCCN(C)C (centres unmarked) [Compound 119] | 3.25E+10
CCCCCCCCCOC(=O)C(C)(C)CCCCCC(CCCCCC(C)(C)C(=O)OCCCCCCCCC)OC(=O)CC1CCN(CCO)CC1 [Compound 113] | 3.59E+08
CCCCCCCCCCOC(=O)C(C)(C)CCCCCC(CCCCCC(C)(C)C(=O)OCCCCCCCCCC)OC(=O)C1CCN(C)CC1 [Compound 99] | 5.30E+09
CCCCCCCCCCOC(=O)C(C)(C)CCCCCC(CCCCCC(C)(C)C(=O)OCCCCCCCCCC)OC(=O)CCN(C)C [Compound 1] | 6.43E+08
CCCCCCCCCOC(=O)CC(C)(C)CCCCC(CCCCC(C)(C)CC(=O)OCCCCCCCCC)OC(=O)CCCN(C)C [Compound 97] | 3.37E+09
CCCCCCCCCOC(=O)C(C)(C)CCCCCC(CCCCCC(C)(C)C(=O)OCC(CCCCC)CCCCCCC)OC(=O)CC1CCN(CCO)CC1 (centres unmarked) [Compound 114] | 1.06E+08
CC(C)CCCCCCCOC(=O)CCC(C)(C)CCCC(CCCC(C)(C)CCC(=O)OCCCCCCCC(C)C)OC(=O)CCCN(C)C [Compound 127] | 3.59E+10
CCCCCCC#CCCOC(=O)C(C)(C)CCCCCC(CCCCCC(C)(C)C(=O)OCCC#CCCCCCC)OC(=O)CCCN(C)C [Compound 24] | 5.56E+09
CCCCCCCCN(CCCCCCCC)CCOC(=O)C(C)(C)CCCCCC(CCCCCC(C)(C)C(=O)OCCN(CCCCCCCC)CCCCCCCC)OC(=O)CCN(C)C [Compound 15] | 4.89E+08
CCCCCCCCCSC(=O)C(C)(C)CCCCCC(CCCCCC(C)(C)C(=O)SCCCCCCCCC)OC(=O)CC1CCN(CCO)CC1 [Compound 110] | 2.06E+08
